Data published in patent US9120820B2, “Fluorescent molecular probes for use in assays that measure test compound competitive binding with SAM-utilizing proteins” (CAYMAN CHEMICAL COMPANY, INCORPORATED, priority 2011, dated 2015).
“And” between values parts separate entries of the source, which are not always exact repeats. Equal entries are not always repeated. Where two headings read alike, the source gives them in different places.

Tests used:
SET7/9 [1] = molecular target: T1, SET7/9 (Homo sapiens, UniProt Q8WTS6); assay: Fluorescence polarization saturation binding of fluorescent probe to SET7/9
T1 construct: purchased Cayman 10320
T1 sequence (Q8WTS6 1-366): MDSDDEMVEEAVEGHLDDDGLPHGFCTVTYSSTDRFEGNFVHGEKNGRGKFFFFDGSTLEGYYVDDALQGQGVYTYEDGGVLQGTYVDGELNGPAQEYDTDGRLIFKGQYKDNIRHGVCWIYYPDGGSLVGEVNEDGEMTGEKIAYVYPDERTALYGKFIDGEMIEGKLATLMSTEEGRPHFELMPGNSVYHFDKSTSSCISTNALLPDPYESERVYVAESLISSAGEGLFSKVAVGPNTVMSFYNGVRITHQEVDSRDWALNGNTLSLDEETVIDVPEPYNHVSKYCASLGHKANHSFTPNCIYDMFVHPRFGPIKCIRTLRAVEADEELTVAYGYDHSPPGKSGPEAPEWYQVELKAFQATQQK
Description: (§1) Methods: The experiment was performed once, with two replicate wells for all methyltransferases per condition. The sole exception to this is NSD2 (see details below). The assay was performed in a ½ area, black, 96-well plate (Corning #3686) in a final volume of 30 μL. Methyltransferases (Table 1) were serially diluted two-fold in FP buffer (Cayman Catalog #600028) and 15 μL of a given dilution were added per well to the assay plate. Fifteen microliters of sinefungin probe 1A (10 nM) were added to each well, giving a final sinefungin probe 1A concentration of 5 nM. This concentration of sinefungin probe 1A was chosen because it had at least a 10-fold increase in fluorescence (excitation max 575 nm/emission max 615 nm) over background (buffer). The mixture was incubated in the dark at room temperature for 30 minutes and its fluorescence polarization was read using a BioTek Synergy 4.

PRDM9 = molecular target: T2, PRDM9 (Homo sapiens, UniProt Q9NQV7); assay: Fluorescence polarization saturation binding of fluorescent probe to PRDM9; conditions: saturation-binding format, mean ± SEM, read-out: Sinefungin Probe 1A Affinity
T2 construct: purchased Cayman
Description: (§2) Sinefungin Probe 1A was tested for the ability to bind to 16 proteins, including several non-methlytransferase protein controls (Table 2). This probe binds to 4 methyltransferases (SET7/9, G9a, GLP, MLL) with Kd values <2 μM.

MLL = MLL (Homo sapiens, UniProt Q03164); assay: Fluorescence polarization saturation binding of fluorescent probe to MLL; conditions: saturation-binding format, mean ± SEM, read-out: Sinefungin Probe 1A Affinity
Description: as §2

PRMT1 = molecular target: T3, PRMT1 (Homo sapiens, UniProt Q99873); assay: Fluorescence polarization saturation binding of fluorescent probe to PRMT1
T3 construct: purchased Cayman
Description: as §1

SET8 = molecular target: T4, SET8 (Homo sapiens, UniProt Q9NQR1); assay: Fluorescence polarization saturation binding of fluorescent probe to SET8
T4 construct: purchased Cayman 10319
T4 sequence (Q9NQR1 1-393): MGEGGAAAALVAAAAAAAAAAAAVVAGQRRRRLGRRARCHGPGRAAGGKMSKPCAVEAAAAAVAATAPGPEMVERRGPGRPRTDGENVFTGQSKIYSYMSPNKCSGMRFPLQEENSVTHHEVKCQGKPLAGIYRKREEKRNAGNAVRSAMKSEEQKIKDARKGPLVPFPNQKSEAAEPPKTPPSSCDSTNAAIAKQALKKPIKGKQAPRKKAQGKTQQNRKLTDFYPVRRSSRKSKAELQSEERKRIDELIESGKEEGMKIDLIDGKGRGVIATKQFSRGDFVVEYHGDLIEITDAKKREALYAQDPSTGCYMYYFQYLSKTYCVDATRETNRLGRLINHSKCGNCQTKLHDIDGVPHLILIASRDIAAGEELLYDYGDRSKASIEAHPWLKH
Description: as §1

KMT5c = KMT5c (Homo sapiens, UniProt Q86Y97); assay: Fluorescence polarization saturation binding of fluorescent probe to KMT5c; conditions: saturation-binding format, read-out: Sinefungin Probe 1A Affinity
Description: as §2

Sumo = assay: Fluorescence polarization saturation binding of fluorescent probe to Sumo (control protein); conditions: saturation-binding format, read-out: Sinefungin Probe 1A Affinity
Description: as §2

SET7/9 [2] = molecular target: T1, SET7/9; assay: SET7/9 SAM-Screener high-throughput FP assay, Sinefungin Probe 1A displacement; type: binding; conditions: SET7/9 30 nM, FIG. 10
Description: Methods: A collection of 14,400 compounds from the Maybridge HitFinder collection of compounds was assayed for the displacement of Sinefungin Probe 1A from SET7/9 in a high-throughput manner using the SET7/9 SAM-Screener FP assay Cayman Catalog Item #600490). Thirty microliters of assay buffer (50 mM Tris pH 8.0, 50 mM KCl, 5 mM CHAPS, 2 mM DTT) was added to every well of a black 384-well polystyrene microtiter plate (Thermo-Fisher 364576). To every well, excluding control wells, was added one microliter of a DMSO solution containing a test compound. Control wells received either 1 μl DMSO or 1 μl of a sinefungin solution. The final concentration of sinefungin control or test compounds in the assay was 50 μM or 10 μM, respectively. To every well of the plate was added 10 μl of a SET7/9 solution to give a final assay concentration of 30 nM. After a 15-minute incubation at ambient temperature, 10 μl of Sinefungin Probe 1A solution was added to every well to give a final assay concentration of 10 nM in a total assay volume of 50 μl Samples were analyzed using a Biotek Synergy H4 plate reader in fluorescence polarization mode after a 30-minute incubation at ambient temperature in the dark. Data were analyzed using GeneData (v. 9.01). […]

T3 sequence (Q99873 whole entry): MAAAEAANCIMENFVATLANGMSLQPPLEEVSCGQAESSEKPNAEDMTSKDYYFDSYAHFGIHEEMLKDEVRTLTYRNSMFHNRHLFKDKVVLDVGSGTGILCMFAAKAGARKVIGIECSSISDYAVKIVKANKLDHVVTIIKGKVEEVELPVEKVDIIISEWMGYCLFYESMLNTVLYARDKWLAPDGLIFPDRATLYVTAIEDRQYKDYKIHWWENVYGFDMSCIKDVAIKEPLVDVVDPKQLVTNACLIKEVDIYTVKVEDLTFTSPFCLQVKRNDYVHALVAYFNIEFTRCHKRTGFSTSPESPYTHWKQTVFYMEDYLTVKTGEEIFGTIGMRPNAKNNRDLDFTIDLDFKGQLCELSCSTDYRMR
T2 sequence (Q9NQV7 whole entry, species assumed): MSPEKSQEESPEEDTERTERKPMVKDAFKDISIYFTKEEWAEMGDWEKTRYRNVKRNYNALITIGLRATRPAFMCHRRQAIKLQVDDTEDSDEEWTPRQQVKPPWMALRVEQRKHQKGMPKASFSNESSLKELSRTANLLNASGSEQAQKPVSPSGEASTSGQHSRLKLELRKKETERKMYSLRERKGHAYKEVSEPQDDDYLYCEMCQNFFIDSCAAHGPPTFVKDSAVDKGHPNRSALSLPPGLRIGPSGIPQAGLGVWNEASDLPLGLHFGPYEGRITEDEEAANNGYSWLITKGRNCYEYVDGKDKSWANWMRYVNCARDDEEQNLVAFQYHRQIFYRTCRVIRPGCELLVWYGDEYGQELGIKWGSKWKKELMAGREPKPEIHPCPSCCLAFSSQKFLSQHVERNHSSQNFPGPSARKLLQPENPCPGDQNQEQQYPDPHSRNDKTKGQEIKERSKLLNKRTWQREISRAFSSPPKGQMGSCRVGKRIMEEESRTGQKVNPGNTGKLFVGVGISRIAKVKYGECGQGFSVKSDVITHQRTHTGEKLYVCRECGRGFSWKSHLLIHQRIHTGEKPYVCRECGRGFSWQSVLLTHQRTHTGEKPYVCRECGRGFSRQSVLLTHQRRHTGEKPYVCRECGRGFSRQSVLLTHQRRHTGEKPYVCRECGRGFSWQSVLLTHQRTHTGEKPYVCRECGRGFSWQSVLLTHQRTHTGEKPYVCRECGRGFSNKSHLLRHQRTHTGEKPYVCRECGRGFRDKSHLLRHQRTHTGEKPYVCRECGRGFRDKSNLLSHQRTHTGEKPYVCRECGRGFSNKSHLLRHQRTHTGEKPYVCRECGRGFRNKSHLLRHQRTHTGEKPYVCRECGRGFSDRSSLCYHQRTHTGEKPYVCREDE
Chain of MLL (Q03164 3785-3969 limits assumed): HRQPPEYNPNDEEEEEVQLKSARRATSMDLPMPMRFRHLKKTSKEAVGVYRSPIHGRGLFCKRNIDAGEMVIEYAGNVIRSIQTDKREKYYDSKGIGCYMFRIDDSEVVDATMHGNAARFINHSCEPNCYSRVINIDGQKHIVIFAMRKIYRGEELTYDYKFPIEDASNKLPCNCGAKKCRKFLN
Chain of KMT5c (Q86Y97 whole entry, species assumed): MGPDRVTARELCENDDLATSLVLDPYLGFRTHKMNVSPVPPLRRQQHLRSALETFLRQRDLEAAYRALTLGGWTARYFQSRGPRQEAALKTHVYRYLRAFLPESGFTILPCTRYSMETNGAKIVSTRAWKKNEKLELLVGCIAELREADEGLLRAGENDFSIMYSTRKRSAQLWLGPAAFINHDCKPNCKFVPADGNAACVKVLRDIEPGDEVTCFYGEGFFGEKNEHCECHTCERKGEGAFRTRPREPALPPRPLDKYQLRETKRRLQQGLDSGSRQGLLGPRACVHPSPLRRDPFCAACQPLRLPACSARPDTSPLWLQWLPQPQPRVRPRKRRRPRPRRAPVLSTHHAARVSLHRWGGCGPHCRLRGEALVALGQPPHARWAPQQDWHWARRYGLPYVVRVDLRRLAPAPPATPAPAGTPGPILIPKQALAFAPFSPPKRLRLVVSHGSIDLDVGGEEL

## Nc1ncnc2c1ncn2[C@@H]1O[C@H](C[C@@H](N)CC[C@H](N)C(=O)O)[C@@H](OCc2cnnn2CCCCCCNC(=O)OC2CCN(C(=O)c3ccccc3C3=c4cc5c6c(c4Oc4c3cc3c7c4CCCN7CCC3)CCC[N+]=6CCC5)CC2)[C@H]1O [Sinefungin Probe 1A]
SET7/9 [1]; Example 8, SET7/9, 5 nM probe, experiment performed once, FIG. 2, read-out: Kd
  Kd: 17 nM
SET7/9 [1]; SET7/9, saturation-binding format, mean ± SEM, at least two independent experiments, read-out: Sinefungin Probe 1A Affinity
  Kd: < 2000 nM and 27 nM
PRDM9
  Kd: 2600 ± 600 nM
MLL
  Kd: 750 ± 65 nM
PRMT1; Example 8, PRMT1, 5 nM probe, FIG. 2
  measurable affinity for the probe: only SET7/9 and G9a displayed measurable affinity
PRMT1; PRMT1, saturation-binding format, read-out: Sinefungin Probe 1A Affinity
  Kd: > 1200 nM
SET8; Example 8, SET8, 5 nM probe, FIG. 2
  measurable affinity for the probe: only SET7/9 and G9a displayed measurable affinity
SET8; SET8, saturation-binding format, read-out: Sinefungin Probe 1A Affinity
  Kd: > 2000 nM
KMT5c
  Kd: > 2000 nM
Sumo
  Kd: > 10000 nM
SET7/9 [2]
  increase of probe polarization by binding: > 120 mp
